Laboratory results: US20230322846A9, “NEUROACTIVE STEROIDS AND THEIR METHODS OF USE” (SAGE THERAPEUTICS, INC., priority 2018, published 2023)

target: [35S]-TBPS binding, rat brain cortical membranes; assay: Steroid inhibition of [35S]-TBPS binding; settings: 3 nM [35S]-TBPS, in the presence of 5 mM GABA
In short: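 In the presence of […], compounds (DMSO 0.5% final) competed with 3 nM [35S]-TBPS for Sprague-Dawley rat cortical membranes, pH 7.4 phosphate buffer, 90 min, room temperature. Filtration and scintillation counting; specific binding defined by […]; IC50 and maximal inhibition fitted per experiment, averaged as mean ± SEM.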

SMILES	IC50
CCOC[C@@]1(O)CC[C@H]2[C@H](CC[C@@H]3[C@@H]2CC[C@]2(C)[C@@H]([C@H](Nc4ccc(C#N)cc4C)C(F)(F)F)CC[C@@H]32)C1 [Example 487, 4-(((S)-1-((3R,5R,8R,9R,10S,13S,14S,17S)-3-(ethoxymethyl)-3-hydroxy-13-methylhexadecahydro-1H-cyclopenta[a]phenanthren-17-yl)-2,2,2-trifluoroethyl)amino)-3-methylbenzonitrile]	100 to 1000 nM
COC[C@@]1(O)CC[C@H]2[C@H](CC[C@@H]3[C@@H]2CC[C@]2(C)[C@@H]([C@@H](C)Nc4ccc(C#N)nc4)CC[C@@H]32)C1 [Example 258]	100 to 1000 nM
CCOC[C@@]1(O)CC[C@H]2[C@H](CC[C@@H]3[C@@H]2CC[C@]2(C)[C@@H]([C@@H](C)Cn4ccc(C#N)n4)CC[C@@H]32)C1 [Example 288, 1-((R)-2-((3R,5R,8R,9R,10S,13S,14S,17R)-3-(ethoxymethyl)-3-hydroxy-13-methylhexadecahydro-1H-cyclopenta[a]phenanthren-17-yl)propyl)-1H-pyrazole-3-carbonitrile]	< 100 nM
CCOC[C@@]1(O)CC[C@H]2[C@H](CC[C@@H]3[C@@H]2CC[C@]2(C)[C@@H]([C@@H](C)Nc4ccc(C#N)cc4C)CC[C@@H]32)C1 [Example 260]	< 100 nM
COC[C@@]1(O)CC[C@@]2(C)[C@H](CC[C@@H]3[C@@H]2CC[C@@]2(C)[C@H]3CC[C@]2(O)[C@@H](C)Cn2cc(C#N)cn2)C1 [Example 351, 1-((S)-2-((3R,5R,8R,9S,10S,13S,14S,17S)-3,17-dihydroxy-3-(methoxymethyl)-10,13-dimethylhexadecahydro-1H-cyclopenta[a]phenanthren-17-yl)propyl)-1H-pyrazole-4-carbonitrile]	1000 to 10000 nM
C[C@@H]([C@H]1CC[C@H]2[C@@H]3CC[C@@H]4C[C@](C)(O)CC[C@@H]4[C@H]3CC[C@]12C)n1cc(C#N)cn1 [Example 157, 1-((S)-1-((3R,5R,8R,9R,10S,13S,14S,17S)-3-hydroxy-3,13-dimethylhexadecahydro-1H-cyclopenta[a]phenanthren-17-yl)ethyl)-1H-pyrazole-4-carbonitrile]	1000 to 10000 nM
COC[C@@]1(O)CC[C@H]2[C@H](CC[C@@H]3[C@@H]2CC[C@]2(C)[C@@H]([C@H](C)NC(=O)c4ccc(F)cc4F)CC[C@@H]32)C1 [Example 135]	1000 to 10000 nM
CCOC[C@@]1(O)CC[C@H]2[C@H](CC[C@@H]3[C@@H]2CC[C@]2(C)[C@@H]([C@@H](C)Nc4ccc(-n5ccc(C#N)n5)nc4)CC[C@@H]32)C1 [Example 264]	100 to 1000 nM
COC[C@@]1(O)CC[C@H]2[C@H](CC[C@@H]3[C@@H]2CC[C@]2(C)[C@@H]([C@H](C)NC(=O)c4ccc(OC(F)(F)F)cc4)CC[C@@H]32)C1 [Example 112]	100 to 1000 nM
CCOC[C@@]1(O)CC[C@H]2[C@H](CC[C@@H]3[C@@H]2CC[C@]2(C)[C@@H]([C@H](C)Cc4ccc(C)nc4C#N)CC[C@@H]32)C1 [Example 415]	< 100 nM
C[C@H](Cn1cc(C#N)cn1)[C@H]1CC[C@H]2[C@@H]3CC[C@@H]4C[C@@](O)(CC5CC5)CC[C@@H]4[C@H]3CC[C@]12C [Example 304, 1-((S)-2-((3S,5R,8R,9R,10S,13S,14S,17R)-3-(cyclopropylmethyl)-3-hydroxy-13-methylhexadecahydro-1H-cyclopenta[a]phenanthren-17-yl)propyl)-1H-pyrazole-4-carbonitrile]	< 100 nM
CN(C[C@H]1CC[C@H]2[C@@H]3CC[C@@H]4C[C@](C)(O)CC[C@@H]4[C@H]3CC[C@]12C)S(=O)(=O)c1ccccc1 [Example 5, N-(((3R,5R,8R,9R,10S,13S,14S,17S)-3-hydroxy-3,13-dimethylhexadecahydro-1H-cyclopenta[a]phenanthren-17-yl)methyl)-N-methylbenzenesulfonamide]	< 100 nM
C[C@H](Cn1cc(C#N)cn1)[C@@]1(O)CC[C@H]2[C@@H]3CC[C@@H]4C[C@](C)(O)CC[C@@H]4[C@H]3CC[C@@]21C [Example 346, 1-((R)-2-((3R,5R,8R,9R,10S,13S,14S,17S)-3,17-dihydroxy-3,13-dimethylhexadecahydro-1H-cyclopenta[a]phenanthren-17-yl)propyl)-1H-pyrazole-4-carbonitrile]	1000 to 10000 nM
COC[C@@]1(O)CC[C@H]2[C@H](CC[C@@H]3[C@@H]2CC[C@]2(C)[C@@H]([C@@H](C)NC(=O)c4ccc(C#N)cc4F)CC[C@@H]32)C1 [Example 131]	< 100 nM
C[C@@H](NC(=O)c1cccc(C#N)c1)[C@H]1CC[C@H]2[C@@H]3CC[C@@H]4C[C@](C)(O)CC[C@@H]4[C@H]3CC[C@]12C [Example 109]	< 100 nM
COC[C@@]1(O)CC[C@H]2[C@H](CC[C@@H]3[C@@H]2CC[C@]2(C)[C@@H]([C@@H](C)Nc4cccc(C#N)c4)CC[C@@H]32)C1 [Example 254]	< 100 nM
COC[C@@]1(O)CC[C@H]2[C@H](CC[C@@H]3[C@@H]2CC[C@]2(C)[C@@H]([C@@H](C)Cn4cc(C#N)cn4)CC[C@@H]32)C1 [Example 92, 1-((R)-2-((3R, 5R, 8R, 9R, 10S, 13S, 14S, 17R)-3-hydroxy-3-(methoxymethyl)-13-methylhexadecahydro-1H-cyclopenta[a]phenanthren-17-yl)propyl)-1H-pyrazole-4-carbonitrile]	< 100 nM
C[C@@]1(O)CC[C@H]2[C@H](CC[C@@H]3[C@@H]2CC[C@]2(C)[C@@H](CN4C(=O)CCC[C@H]4c4ccccc4)CC[C@@H]32)C1 [Example 14, (S)-1-(((3R,5R,8R,9R,10S,13S,14S,17S)-3-hydroxy-3,13-dimethylhexadecahydro-1H-cyclopenta[a]phenanthren-17-yl)methyl)-6-phenylpiperidin-2-one]	100 to 1000 nM
C[C@H](Nc1ccccc1)[C@H]1CC[C@H]2[C@@H]3CC[C@@H]4C[C@](C)(O)CC[C@@H]4[C@H]3CC[C@]12C [Example 26, (3R,5R,8R,9R,10S,13S,14S,17S)-3,13-dimethyl-17-((S)-1-(phenylamino)ethyl)hexadecahydro-1H-cyclopenta[a]phenanthren-3-ol]	1000 to 10000 nM
COC[C@@]1(O)CC[C@H]2[C@H](CC[C@@H]3[C@@H]2CC[C@]2(C)[C@@H]([C@@H](C)n4cc(C#N)cn4)CC[C@@H]32)C1 [Example 150, 1-((R)-1-((3R, 5R, 8R, 9R, 10S, 135, 145, 17S)-3-hydroxy-3-(methoxymethyl)-13-methylhexadecahydro-1H-cyclopenta[a]phenanthren-17-yl)ethyl)-1H-pyrazole-4-carbonitrile]	< 100 nM
CC[C@@H](NCc1ccccc1)[C@H]1CC[C@H]2[C@@H]3CC[C@@H]4C[C@@](O)(COC)CC[C@@H]4[C@H]3CC[C@]12C [Example 214, (3R,5R,8R,9R,10S,13S,14S,17S)-17-((R)-1-(benzylamino)propyl)-3-(methoxymethyl)-13-methylhexadecahydro-1H-cyclopenta[a]phenanthren-3-ol]	1000 to 10000 nM
